Source: patent publication US20160046579A1, “THERAPEUTIC COMPOUNDS AND COMPOSITIONS” (AGIOS PHARMACEUTICALS, INC., priority 2013, published 2016)

Columns and labels:
[1] = target: PKR R510Q (Homo sapiens, UniProt P30613, R510Q); test: PKR Mutant Assay, dose response (AC50), PKR R510Q; assay type: biochemical; details: PKR R510Q mutant enzyme
Method: (§1) • PKR or PKR mutant enzyme solution was diluted in assay buffer. • 2 μL of test compound was added into wells first, and then 180 μL reaction mix was added. • Reactions mixture with test compound was assembled except for ADP, and plates were stored for 60 minutes at room temperature. • 20 uL ADP was added to start reaction at room temperature and reaction progress was measured as changes in absorbance at 340 nm wavelength at room temperature.
(§2) Test Compound Preparation: • Test compound stock was made at 100× concentration in 100% DMSO (10 mM) • 1 to 3 dilutions were made for 11 points (i.e. 50 μl of first concentration added to 100 μl 100% DMSO to yield 3.33 mM, 50 μl of this added to 100 μl DMSO to yield 1.11 mM, and so forth) • 1 to 100 dilution into assay (2 μl in 200 μl) yielded starting concentration of 100 μM, decreasing 3 fold for 11 points.

[2] = target: PKR R532W (Homo sapiens, UniProt P30613, R532W); test: PKR Mutant Assay, dose response (AC50), PKR R532W; assay type: biochemical; details: PKR R532W mutant enzyme
Method: as §1, §2

[3] = target: T1, wt PKR (Homo sapiens, UniProt P30613); test: wt PKR cell based assay
[4] = target: T1, wt PKR; test: PKR Mutant Assay, dose response (AC50), wild type PKR enzyme; assay type: biochemical; details: wild type PKR enzyme
Method: as §1, §2

T1 sequence (P30613 whole entry): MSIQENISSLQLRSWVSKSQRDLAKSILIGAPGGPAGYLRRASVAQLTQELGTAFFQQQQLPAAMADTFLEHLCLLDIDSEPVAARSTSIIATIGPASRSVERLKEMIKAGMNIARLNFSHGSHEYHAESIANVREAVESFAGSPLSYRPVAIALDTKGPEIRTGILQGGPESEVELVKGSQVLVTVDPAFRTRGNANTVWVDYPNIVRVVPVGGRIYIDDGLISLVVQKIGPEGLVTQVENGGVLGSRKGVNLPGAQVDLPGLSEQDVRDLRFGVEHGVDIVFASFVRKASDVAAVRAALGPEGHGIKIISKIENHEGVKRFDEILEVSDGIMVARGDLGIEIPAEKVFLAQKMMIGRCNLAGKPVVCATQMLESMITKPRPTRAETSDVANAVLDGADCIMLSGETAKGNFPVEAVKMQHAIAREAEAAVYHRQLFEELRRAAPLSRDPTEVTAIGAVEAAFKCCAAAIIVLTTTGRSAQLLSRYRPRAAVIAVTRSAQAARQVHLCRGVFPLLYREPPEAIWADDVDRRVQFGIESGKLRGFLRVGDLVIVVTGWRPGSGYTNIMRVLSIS
Chain of PKR R510Q (P30613 whole entry R510Q): as the sequence (P30613 whole entry) above, with R510Q counted along it
Chain of PKR R532W (P30613 whole entry R532W): as the sequence (P30613 whole entry) above, with R532W counted along it

Compound | AC50 [1] | AC50 [2] | AC50 [3] | AC50 [4]
Nc1cnc2c(S(=O)(=O)Nc3ccc(C(=O)N4CCC(O)(CCCC(F)(F)F)CC4)cc3)cccc2n1 [Compound 482, 2-amino-N-(4-(4-hydroxy-4-(4,4,4-trifluorobutyl)piperidine-1-carbonyl)phenyl)quinoxaline-5-sulfonamide] | < 100 nM | < 100 nM | < 100 nM | < 100 nM
CC(F)(F)CCC1(O)CCN(C(=O)c2ccc(NS(=O)(=O)c3cc(F)cc4sc(N)nc34)cc2F)CC1 [Compound 483, 2-amino-N-(4-(4-(3,3-difluorobutyl)-4-hydroxypiperidine-1-carbonyl)-3-fluorophenyl)-6-fluorobenzo[d]thiazole-4-sulfonamide] | 101 to 1000 nM | 101 to 1000 nM | 101 to 1000 nM | < 100 nM
CC(F)(F)CCC1(O)CCN(C(=O)c2ccc(NS(=O)(=O)c3cccc4nc(N)cnc34)cc2)CC1 [Compound 486, 2-amino-N-(4-(4-(3,3-difluorobutyl)-4-hydroxypiperidine-1-carbonyl)phenyl)quinoxaline-5-sulfonamide] | 101 to 1000 nM | < 100 nM | < 100 nM | < 100 nM
CC(F)(F)CCC1(O)CCN(C(=O)c2ccc(NS(=O)(=O)c3cc(F)cc4sc(N)nc34)cc2C#N)CC1 [Compound 491, 2-amino-N-(3-cyano-4-(4-(3,3-difluorobutyl)-4-hydroxypiperidine-1-carbonyl)phenyl)-6-fluorobenzo[d]thiazole-4-sulfonamide] | 101 to 1000 nM | 101 to 1000 nM | 101 to 1000 nM | 101 to 1000 nM
CC(F)(F)CCC1(O)CCN(C(=O)c2ccc(NS(=O)(=O)c3cccc4nccnc34)cc2C#N)CC1 [Compound 492] | 101 to 1000 nM | 101 to 1000 nM | 101 to 1000 nM | 101 to 1000 nM
Nc1cnc2c(S(=O)(=O)Nc3ccc(C(=O)N4CCC(O)(c5cccc(F)c5F)CC4)cc3)cccc2n1 [Compound 493, 2-amino-N-(4-(4-(2,3-difluorophenyl)-4-hydroxypiperidine-1-carbonyl)phenyl)quinoxaline-5-sulfonamide] | < 100 nM | < 100 nM | < 100 nM | < 100 nM
Cc1nscc1CC1(O)CCN(C(=O)c2ccc(NS(=O)(=O)c3cccc4nccnc34)cc2)CC1 [Compound 497, N-(4-(4-hydroxy-4-((3-methylisothiazol-4-yl)methyl)piperidine-1-carbonyl)phenyl)quinoxaline-5-sulfonamide] | < 100 nM | < 100 nM | < 100 nM | < 100 nM
O=C(c1ccc(NS(=O)(=O)c2cccc3scnc23)cc1)N1CCC(O)(Cc2cn[nH]c2)CC1 [Compound 498, N-(4-(4-((1H-pyrazol-4-yl)methyl)-4-hydroxypiperidine-1-carbonyl)phenyl)benzo[d]thiazole-4-sulfonamide] | 101 to 1000 nM | < 100 nM | 101 to 1000 nM | < 100 nM
O=C(c1ccc(NS(=O)(=O)c2cccc3nccnc23)cc1)N1CCC(O)(Cc2cn[nH]c2)CC1 [Compound 499, N-(4-(4-((1H-pyrazol-4-yl)methyl)-4-hydroxypiperidine-1-carbonyl)phenyl)quinoxaline-5-sulfonamide] | 101 to 1000 nM | < 100 nM | 101 to 1000 nM | < 100 nM
O=C(c1ccc(NS(=O)(=O)c2cccc3nccnc23)cc1)N1CCC(O)(Cc2cc[nH]n2)CC1 [Compound 500, N-(4-(4-((1H-pyrazol-3-yl)methyl)-4-hydroxypiperidine-1-carbonyl)phenyl)quinoxaline-5-sulfonamide] | 1010 to 10000 nM | 101 to 1000 nM | 101 to 1000 nM | 101 to 1000 nM
O=C(c1ccc(NS(=O)(=O)c2cccc3scnc23)cc1)N1CCC(O)(C2CCC(O)CC2)CC1 (stereo not shown) [Compound 501, N-(4-(4-hydroxy-4-(4-hydroxycyclohexyl)piperidine-1-carbonyl)phenyl)benzo[d]thiazole-4-sulfonamide] | 101 to 1000 nM | 101 to 1000 nM | 101 to 1000 nM | 101 to 1000 nM
O=C(c1ccc(NS(=O)(=O)c2cccc3nccnc23)cc1)N1CCC(O)(C2CCC(O)CC2)CC1 (stereo not shown) [Compound 502, N-(4-(4-hydroxy-4-(4-hydroxycyclohexyl)piperidine-1-carbonyl)phenyl)quinoxaline-5-sulfonamide] | 101 to 1000 nM | 101 to 1000 nM | 101 to 1000 nM | 101 to 1000 nM
Cn1nccc1CC1(O)CCN(C(=O)c2ccc(NS(=O)(=O)c3cccc4nccnc34)cc2)CC1 [Compound 508, N-(4-(4-hydroxy-4-((1-methyl-1H-pyrazol-5-yl)methyl)piperidine-1-carbonyl)phenyl)quinoxaline-5-sulfonamide] | 101 to 1000 nM | < 100 nM | < 100 nM | < 100 nM
Cc1cc(CC2(O)CCN(C(=O)c3ccc(NS(=O)(=O)c4cccc5nccnc45)cc3)CC2)sn1 [Compound 511, N-(4-(4-hydroxy-4-((3-methylisothiazol-5-yl)methyl)piperidine-1-carbonyl)phenyl)quinoxaline-5-sulfonamide] | 101 to 1000 nM | < 100 nM | 101 to 1000 nM | < 100 nM
Cc1n[nH]c(C)c1CC1(O)CCN(C(=O)c2ccc(NS(=O)(=O)c3cccc4nccnc34)cc2)CC1 [Compound 512, N-(4-(4-((3,5-dimethyl-1H-pyrazol-4-yl)methyl)-4-hydroxypiperidine-1-carbonyl)phenyl)quinoxaline-5-sulfonamide] | 101 to 1000 nM | < 100 nM | 101 to 1000 nM | < 100 nM
CC(C)CC1(O)CCN(C(=O)c2ccc(NS(=O)(=O)c3cncc4cccnc34)cc2)CC1 [Compound 513, N-(4-(4-hydroxy-4-isobutylpiperidine-1-carbonyl)phenyl)-1,6-naphthyridine-8-sulfonamide] | 101 to 1000 nM | < 100 nM | < 100 nM | < 100 nM

The next lines start with the values.

AC50 [1] | AC50 [2] | AC50 [3] | AC50 [4] | Compound
101 to 1000 nM | < 100 nM | 101 to 1000 nM | < 100 nM | Cc1n[nH]c(C)c1CC1(O)CCN(C(=O)c2ccc(NS(=O)(=O)c3cccc4scnc34)cc2)CC1 [Compound 514]
101 to 1000 nM | < 100 nM | 101 to 1000 nM | < 100 nM | Cc1cc(C2(O)CCN(C(=O)c3ccc(NS(=O)(=O)c4cccc5nccnc45)cc3)CC2)sn1 [Compound 518, N-(4-(4-hydroxy-4-(3-methylisothiazol-5-yl)piperidine-1-carbonyl)phenyl)quinoxaline-5-sulfonamide]
< 100 nM | < 100 nM | < 100 nM | < 100 nM | Cc1nscc1CC1(O)CCN(C(=O)c2ccc(NS(=O)(=O)c3cccc4ncsc34)cc2)CC1 [Compound 519, N-(4-(4-hydroxy-4-((3-methylisothiazol-4-yl)methyl)piperidine-1-carbonyl)phenyl)benzo[d]thiazole-7-sulfonamide]
101 to 1000 nM | < 100 nM | 101 to 1000 nM | < 100 nM | Cc1noc(C)c1CC1(O)CCN(C(=O)c2ccc(NS(=O)(=O)c3cccc4scnc34)cc2)CC1 [Compound 520, N-(4-(4-((3,5-dimethylisoxazol-4-yl)methyl)-4-hydroxypiperidine-1-carbonyl)phenyl)benzo[d]thiazole-4-sulfonamide]
101 to 1000 nM | < 100 nM | < 100 nM | < 100 nM | Cc1noc(C)c1CC1(O)CCN(C(=O)c2ccc(NS(=O)(=O)c3cccc4nccnc34)cc2)CC1 [Compound 521, N-(4-(4-((3,5-dimethylisoxazol-4-yl)methyl)-4-hydroxypiperidine-1-carbonyl)phenyl)quinoxaline-5-sulfonamide]
101 to 1000 nM | < 100 nM | < 100 nM | < 100 nM | O=C(c1ccc(NS(=O)(=O)c2cccc3scnc23)cc1)N1CCC(O)(c2sncc2Cl)CC1 [Compound 522, N-(4-(4-(4-chloroisothiazol-5-yl)-4-hydroxypiperidine-1-carbonyl)phenyl)benzo[d]thiazole-4-sulfonamide]
1010 to 10000 nM | 101 to 1000 nM | 101 to 1000 nM | 101 to 1000 nM | O=C(c1ccc(NS(=O)(=O)c2cccc3nccnc23)cc1)N1CCC(O)(Cc2c(O)n[nH]c2C(F)(F)F)CC1 [Compound 523]
101 to 1000 nM | 101 to 1000 nM | < 100 nM | 101 to 1000 nM | CC(C)CC1(OC(=O)OCOP(=O)(O)O)CCN(C(=O)c2ccc(NS(=O)(=O)c3cccc4scnc34)cc2)CC1 [Compound 526]
101 to 1000 nM | 101 to 1000 nM | < 100 nM | 101 to 1000 nM | CC(C)CC1(OC(=O)OCOP(=O)(O)O)CCN(C(=O)c2ccc(NS(=O)(=O)c3cccc4nccnc34)cc2)CC1 [Compound 527, 4-isobutyl-1-(4-(quinoxaline-5-sulfonamido)benzoyl)piperidin-4-yl phosphonooxymethyl carbonate]
